Laboratory results taken from patent US7521528B2, “Conformationally constrained parathyroid hormone (PTH) analogs with lactam bridges” (The General Hospital Corporation, priority 2003, dated 2009).
Entries after “also recorded” stand apart in the source; their conditions may differ. Positions of bridges follow the written chain, without caps; N, C: chain ends. Non-standard residues stand in square brackets, D forms with d. Residues, ends and D or L forms follow the SMILES beside them. hArg = N=C(N)NCCCC[C@H](N)C(=O)O

Legend:
Assay type in all cases: cell-based
[1] = biological target: T1, recombinant full-length P1R (Homo sapiens, UniProt Q03431); assay: cAMP stimulation in HKRK-B28 cells; settings: for Emax: percent of maximum response of PTH(1-14), Table 3; for capacity to stimulate cAMP formation at a single dose: 10 μM
T1 construct: expressed in transfected cells
T1 sequence (Q03431 27-593): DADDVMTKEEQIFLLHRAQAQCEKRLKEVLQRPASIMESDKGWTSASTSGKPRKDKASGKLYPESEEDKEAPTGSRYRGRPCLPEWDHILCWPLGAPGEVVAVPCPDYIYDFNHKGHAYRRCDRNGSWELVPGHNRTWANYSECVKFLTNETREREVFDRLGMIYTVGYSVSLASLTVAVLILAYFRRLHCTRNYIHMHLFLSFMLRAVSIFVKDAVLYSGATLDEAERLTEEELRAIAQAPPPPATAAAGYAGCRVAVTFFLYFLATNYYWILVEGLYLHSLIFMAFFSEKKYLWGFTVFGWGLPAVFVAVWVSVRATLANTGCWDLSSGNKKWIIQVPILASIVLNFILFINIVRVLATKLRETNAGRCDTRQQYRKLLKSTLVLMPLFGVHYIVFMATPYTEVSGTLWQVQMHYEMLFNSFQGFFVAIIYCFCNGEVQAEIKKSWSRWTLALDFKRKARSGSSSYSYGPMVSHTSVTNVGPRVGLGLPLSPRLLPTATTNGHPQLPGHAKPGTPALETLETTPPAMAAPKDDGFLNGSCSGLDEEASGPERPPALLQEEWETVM
Description: Cell Culture. The cell line HKRK-B28 (Takasu, H., et al., J. Bone Miner. Res. 14:11-20 (1999)) was derived from the porcine kidney cell line, LLC-PK1 by stable transfection with plasmid DNA encoding the full-length P1R and expresses ˜280,000 receptors per cell. These cells, as well as COS-7 cells and SaOS-2-B10 cells, were cultured at […] in T-75 flasks ([…]) in Dulbecco's modified Eagle's medium (DMEM) supplemented with fetal bovine serum (10%), penicillin G (20 units/ml), streptomycin sulfate (20 μg/ml) and amphotericin B (0.05 μg/ml) in a humidified atmosphere containing 5% CO2. Stock solutions of EGTA/trypsin and antibiotics were from GIBCO; fetal bovine serum was from Hyclone Laboratories (Logan, Utah). COS-7 cells sub-cultured in 24-well plates were transfected with plasmid DNA (200 ng per well) encoding the wild-type human P1R or truncated human P1R deleted for residues (24-181) (Shimizu, M., et al., J. Biol. Chem. 275:21836-21843 (2000)) that was purified by cesium chloride/ethidium bromide density gradient centrifugation, and FuGENE 6 transfection reagent (Roche Indianapolis Ind.) according to the manufacturer's recommended procedure. All cells, in 24-well plates, were treated with fresh media and shifted to 33° C. for 12 to 24 h prior to assay.
(§1) cAMP Stimulation. Stimulation of cells with peptide analogs was performed in 24-well plates. Cells were rinsed with 0.5 mL of binding buffer (50 mM Tris-HCl, 100 mM NaCl, 5 mM KCl, 2 mM CaCl2, 5% heat-inactivated horse serum, 0.5% fetal bovine serum, adjusted to pH 7.5 with HCl) and treated with 200 μL of cAMP assay buffer (Delbecco's modified Eagle's medium containing 2 mM 3-isobutyl-1-methylxanthine, 1 mg/mL bovine serum albumin, 35 mM Hepes-NaOH, pH 7.4) and 100 μL of binding buffer containing varying amounts of peptide analog (final volume=300 μL). The medium was removed after incubation for 30 to 60 minutes at room temperature, and the cells were frozen on dry ice, lysed with 0.5 mL 50 mM HCl, and refrozen ([…]). The cAMP content of the diluted lysate was determined by radioimmunoassay. The EC50 response values were calculated using nonlinear regression (see below).
(§2) Data Calculation. Calculations were performed using Microsoft® Excel. Nonlinear regression analyses of binding and cAMP dose-response data were performed using the four-parameter equation: yp=Min+[(Max−Min)/(1+(IC50/x)^slope)]. The Excel Solver function was utilized for parameter optimization, as described previously (Carter, P. H., et al., Endocrinology 140: 4972-4981 (1999); Bowen, W. P., and Jerman, J. C., Trends in Pharmacol. Sci. 16: 413-417 (1995)). Differences between paired data sets were statistically evaluated using a one-tailed Student's t-test, assuming unequal variances for the two sets.
The effects of installing a direct covalent linkage between the side chains of the residues at positions 6 and 10 on PTH analog function were also assessed. To do this, paired Glu^6/Lys^10 or Lys^6/Glu^10 substitutions were introduced into an otherwise non-constrained PTH(1-14) analog scaffold AlaValAlaGluIleGln LeuMetHisGlnHarAlaLysTrp-amide (SEQ. ID. NO. 11) and formed an amide bond between the carboxylate side chain group of the introduced glutamate residue and the amino side chain group of the introduced lysine residue. For controls, a portion of each Glu/Lys- or Lys/Glu-substituted PTH(1-14) analog was preserved in the non-bridged form. The four peptides: [Glu^6, Lys^10]PTH(1-14)(linear)(SEQ. ID. NO. 24), [(Glu^6,Lys^10)lac.]PTH(1-14) cyclized via a 6-10 lactam bridge)(SEQ. ID. NO. 3), [Lys^6, Glu^10]PTH(1-14)(SEQ. ID. NO. 25), and [(Lys^6, Glu^10)lac.]PTH(1-14)(SEQ. ID. NO. 26) were first compared at a single dose of 10 μM for the capacity to stimulate cAMP formulation in HKRK-B28 cells, an LLC-PK1-derived cell line that expresses the recombinant full-length P1R at a moderate level (˜280,000 receptors per cell). […]

[2] = biological target: T2, P1R (Homo sapiens, UniProt Q03431); assay: cAMP stimulation in HKRK-B7 cells; settings: for Emax: cAMP response, Table 1
T2 construct: expressed in transfected cells
T2 sequence (Q03431 27-593): T1 sequence (Q03431 27-593)
Description: as §1, §2
The functional effects of substitutions at positions 6 and 10 in PTH using a PTH(1-11) analog AlaValAlaGluIleGlnLeuMetHisGlnArg-amide as the scaffold peptide (SEQ. ID. NO. 8). The peptides were analyzed for the capacity to stimulate cAMP formation in HKRK-B7 cells, an LLC-PK1-derived cell line that expresses via stable transfection the recombinant human P1R at high density (˜950,000 receptors per cell).

[3] = biological target: T3, P1R-DelNt (Homo sapiens, UniProt Q03431); assay: cAMP stimulation in LdelNt-2 cells; settings: for Emax: percent of maximum response of PTH(1-11)
T3 construct: expressed in transfected cells
T3 sequence (Q03431 with tags, fused parts or gaps limits assumed): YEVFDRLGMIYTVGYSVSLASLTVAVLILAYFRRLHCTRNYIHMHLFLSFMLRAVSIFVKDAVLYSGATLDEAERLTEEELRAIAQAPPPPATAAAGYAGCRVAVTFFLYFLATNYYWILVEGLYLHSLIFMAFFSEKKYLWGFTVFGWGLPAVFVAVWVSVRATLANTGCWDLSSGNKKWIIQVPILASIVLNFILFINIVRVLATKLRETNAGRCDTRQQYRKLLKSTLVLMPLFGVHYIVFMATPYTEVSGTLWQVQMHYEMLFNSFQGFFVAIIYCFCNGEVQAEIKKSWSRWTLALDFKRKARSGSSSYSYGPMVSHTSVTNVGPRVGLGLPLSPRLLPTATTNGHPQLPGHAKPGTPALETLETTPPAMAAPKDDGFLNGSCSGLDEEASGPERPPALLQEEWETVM
Description: as §1, §2
The two-domain hypothesis of the PTH-P1R interaction mechanism predicts that the effects of the substitutions at positions 6 and 10 observed with the above PTH(1-11) analogs involve interactions (direct or indirect) that occur within the juxtamembrane region of the receptor. To test this hypothesis, P1R-DelNt was utilized. P1R-DeNt is a P1R construct that is deleted for most of the N domain yet which retains nearly full capacity to be expressed on the cell surface and to stimulate cAMP formation in response to N-terminal PTH analogs, and an LLC-PK1-derived cell line was herein established, LdelNt-2, which stably expresses P1R-DelNt.

## CC[C@H](C)[C@H](NC(=O)[C@H](CCC(=O)O)NC(=O)[C@H](C)NC(=O)[C@@H](NC(=O)[C@H](C)N)C(C)C)C(=O)N[C@@H](CCC(N)=O)C(=O)N[C@@H](CC(C)C)C(=O)N[C@@H](CCSC)C(=O)N[C@@H](Cc1c[nH]cn1)C(=O)N[C@@H](CCC(N)=O)C(=O)N[C@@H](CCCCNC(=N)N)C(=O)N[C@@H](C)C(=O)N[C@@H](CCCCN)C(=O)N[C@@H](Cc1c[nH]c2ccccc12)C(N)=O [PTH(1-14) (SEQ. ID. NO. 11), [Ala^1,3,12,Gln^10,Har^11,Trp^14]PTH(1-14)amide] (H-AVAEIQLMHQ[hArg]AKW-NH2)
[1]; n=3
  maximum cAMP response observed: 359±52 picomoles of cAMP per well
[1]
  Emax: 100 ± 2%

## CC[C@H](C)[C@H](NC(=O)[C@H](CCC(=O)O)NC(=O)[C@H](C)NC(=O)[C@@H](NC(=O)[C@H](C)N)C(C)C)C(=O)N[C@H]1CCC(=O)NCCCC[C@@H](C(=O)N[C@@H](CCCCNC(=N)N)C(=O)N[C@@H](C)C(=O)N[C@@H](CCCCN)C(=O)N[C@@H](Cc2c[nH]c3ccccc23)C(N)=O)NC(=O)[C@H](Cc2c[nH]cn2)NC(=O)[C@H](CCSC)NC(=O)[C@H](CC(C)C)NC1=O [[(Glu^6, Lys^10)lac.]PTH(1-14), AlaValAlaGluIleGluLeuMetHisLysHarAlaLysTrp cyclized via a 6-10 lactam bridge] (H-AVAEIELMHK[hArg]AKW-NH2; lactam 6-10)
[1]
  capacity to stimulate cAMP formation at a single dose: comparable to that of its linear counterpart
  Emax: 52 ± 3%

## CC[C@H](C)[C@H](NC(=O)[C@H](CCC(=O)O)NC(=O)[C@H](C)NC(=O)[C@@H](NC(=O)[C@H](C)N)C(C)C)C(=O)N[C@H]1CCCCNC(=O)CC[C@@H](C(=O)N[C@@H](CCCCNC(=N)N)C(=O)N[C@@H](C)C(=O)N[C@@H](CCCCN)C(=O)N[C@@H](Cc2c[nH]c3ccccc23)C(N)=O)NC(=O)[C@H](Cc2c[nH]cn2)NC(=O)[C@H](CCSC)NC(=O)[C@H](CC(C)C)NC1=O [[(Lys^6, Glu^10)lac.]PTH(1-14)] (H-AVAEIKLMHE[hArg]AKW-NH2; lactam 6-10)
[1]
  capacity to stimulate cAMP formation at a single dose: more active than its linear counterpart; also recorded: significantly (P<0.0001) greater than that elicited by the linear control
  Emax: 59 ± 3%
[1]; dose-response analyses
  potency relative to linear [Lys^6, Glu^10]PTH(1-14): six-fold more potent

## CC[C@H](C)[C@H](NC(=O)[C@H](CCC(=O)O)NC(=O)[C@H](C)NC(=O)[C@@H](NC(=O)[C@H](C)N)C(C)C)C(=O)N[C@@H](CCC(=O)O)C(=O)N[C@@H](CC(C)C)C(=O)N[C@@H](CCSC)C(=O)N[C@@H](Cc1c[nH]cn1)C(=O)N[C@@H](CCCCN)C(=O)N[C@@H](CCCCNC(=N)N)C(=O)N[C@@H](C)C(=O)N[C@@H](CCCCN)C(=O)N[C@@H](Cc1c[nH]c2ccccc12)C(N)=O [[Glu^6, Lys^10]PTH(1-14)] (H-AVAEIELMHK[hArg]AKW-NH2)
[1]
  Emax: 52 ± 3%

## CC[C@H](C)[C@H](NC(=O)[C@H](CCC(=O)O)NC(=O)[C@H](C)NC(=O)[C@@H](NC(=O)[C@H](C)N)C(C)C)C(=O)N[C@@H](CCCCN)C(=O)N[C@@H](CC(C)C)C(=O)N[C@@H](CCSC)C(=O)N[C@@H](Cc1c[nH]cn1)C(=O)N[C@@H](CCC(=O)O)C(=O)N[C@@H](CCCCNC(=N)N)C(=O)N[C@@H](C)C(=O)N[C@@H](CCCCN)C(=O)N[C@@H](Cc1c[nH]c2ccccc12)C(N)=O [[Lys^6, Glu^10]PTH(1-14)] (H-AVAEIKLMHE[hArg]AKW-NH2)
[1]
  Emax: 37 ± 5%

## H-AVAEIALMHAR-NH2 [[Ala^6, Ala^10]PTH(1-11)]
[2]
  potency relative to [Ala^6]PTH(1-11): two-fold greater
  Emax: 41 ± 2%
[3]
  potency relative to [Ala^6]PTH(1-11): two-fold lower
  Emax: 42 ± 5%

## H-AVAEIALMHQR-NH2 [[Ala^6]PTH(1-11)]
[2]
  Emax: 26 ± 2%
[3]
  EC50/potency difference versus parent PTH(1-11): ~3 fold
  Emax: 14 ± 2%

## H-AVAEIQLMHAR-NH2 [[Ala^10]PTH(1-11)]
[2]
  Emax: 88 ± 5%
[3]
  Emax: 79 ± 5%

## H-AVAEIQLMHQR-NH2 [PTH(1-11)(SEQ. ID. NO. 8), AlaValAlaGluIleGlnLeuMetHisGlnArg-amide]
[2]
  fold increase in cAMP formation: 75 fold
  Emax: 100 ± 3%
[3]
  EC50/potency difference versus parent PTH(1-11): 22 fold
  fold increase in cAMP formation/accumulation: 55 fold
  Emax: 100 ± 2%
[3]; n=3
  maximum cAMP response observed: 113±4 pM of cAMP per well
